Data reported in patent publication US20120065210A1, “SUBSTITUTED HEXAHYDROPYRROLO[1,2-C]IMIDAZOLONES” (priority 2010, published 2012).

These compounds were tested against interaction between p53 and MDM2 proteins (recombinant GST-tagged MDM2, p53 peptide) (Homo sapiens, UniProt Q00987) (assay: HTRF assay of inhibition of the p53-MDM2 interaction (GST-MDM2 / biotinylated p53 peptide)). Details: bsa: 0.02%.
Format: binding
Protocol: The ability of the compounds to inhibit the interaction between p53 and MDM2 proteins was measured by an HTRF (homogeneous time-resolved fluorescence) assay in which recombinant GST-tagged MDM2 binds to a peptide that resembles the MDM2-interacting region of p53. Binding of GST-MDM2 protein and p53-peptide (biotinylated on its N-terminal end) is registered by the FRET (fluorescence resonance energy transfer) between Europium (Eu)-labeled anti-GST antibody and streptavidin-conjugated Allophycocyanin (APC).
Add 10 uL diluted compounds (1:5 dilution in reaction buffer) to each well, mix by shaking Add 20 uL biotinylated p53 peptide (180 nM working solution) in reaction buffer to each well and mix on shaker. Incubate at 37° C. for 1 h. Add 20 uL streptavidin-APC and Eu-anti-GST antibody mixture (6 nM Eu-anti-GST and 60 nM streptavidin-APC working solution) in TBS buffer with 0.2% BSA, shake at room temperature for 30 minutes and read using a TRF-capable plate reader at
665 and 615 nm (Victor 5, Perkin ElmerWallac), If not specified, the reagents were purchased from Sigma Chemical Co.

Sequence of interaction between p53 and MDM2 proteins (recombinant GST-tagged MDM2, p53 peptide) (Q00987 whole entry): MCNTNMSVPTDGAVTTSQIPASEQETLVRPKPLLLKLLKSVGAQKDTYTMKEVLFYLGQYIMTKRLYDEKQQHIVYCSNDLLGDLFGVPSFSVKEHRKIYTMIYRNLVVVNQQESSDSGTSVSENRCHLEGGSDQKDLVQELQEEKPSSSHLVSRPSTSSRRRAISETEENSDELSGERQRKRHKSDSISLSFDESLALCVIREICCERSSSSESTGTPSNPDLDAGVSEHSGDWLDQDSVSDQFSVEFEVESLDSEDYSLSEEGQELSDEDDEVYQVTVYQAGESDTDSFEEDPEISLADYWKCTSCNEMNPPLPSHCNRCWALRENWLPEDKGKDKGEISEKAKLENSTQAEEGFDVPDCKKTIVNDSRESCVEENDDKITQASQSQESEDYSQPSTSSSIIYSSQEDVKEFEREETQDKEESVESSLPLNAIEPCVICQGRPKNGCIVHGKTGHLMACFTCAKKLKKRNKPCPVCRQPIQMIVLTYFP

Question: `CC(C)(C)C[C@@H]1N2CN(c3ccc(C(=O)O)cc3)C(=O)[C@H]2[C@H](c2cccc(Cl)c2F)[C@@]1(C#N)c1ccc(Cl)cc1F` [Example 2, 4-[(5S,6R,7S,7aR)-7-(3-chloro-2-fluoro-phenyl)-6-(4-chloro-2-fluoro-phenyl)-6-cyano-5-(2,2-dimethyl-propyl)-1-oxo-tetrahydro-pyrrolo[1,2-c]imidazol-2-yl]-benzoic acid] was tested. Which IC50 did it give?
Answer: Its IC50 is 8 nM.

Question: With `CC(C)(C)C[C@@H]1N2CN(c3ccc(C(=O)O)cc3O)C(=O)[C@H]2[C@H](c2cccc(Cl)c2F)[C@@]1(C#N)c1ccc(Cl)cc1F` [Example 6, 4-[(5S,6R,7S,7aR)-7-(3-chloro-2-fluoro-phenyl)-6-(4-chloro-2-fluoro-phenyl)-6-cyano-5-(2,2-dimethyl-propyl)-1-oxo-tetrahydro-pyrrolo[1,2-c]imidazol-2-yl]-3-hydroxy-benzoic acid] as the compound, how does the IC50 read?
Answer: Its IC50 is 13 nM.

Question: For `COc1cc(N2CN3[C@@H](CC(C)(C)C)[C@](C#N)(c4ccc(Cl)cc4F)[C@@H](c4cccc(Cl)c4F)[C@@H]3C2=O)ccc1C(=O)O` [Example 1, 4-[(5S,6R,7S,7aR)-7-(3-chloro-2-fluoro-phenyl)-6-(4-chloro-2-fluoro-phenyl)-6-cyano-5-(2,2-dimethyl-propyl)-1-oxo-tetrahydro-pyrrolo[1,2-c]imidazol-2-yl]-2-methoxy-benzoic acid], which IC50 is on record?
Answer: Its IC50 is 8 nM.

Question: With `CC(C)(C)C[C@@H]1N2CN(c3ccc(C(=O)O)c(C(F)(F)F)c3)C(=O)[C@H]2[C@H](c2cccc(Cl)c2F)[C@@]1(C#N)c1ccc(Cl)cc1F` [Example 7, 4-[(5S,6R,7S,7aR)-7-(3-chloro-2-fluoro-phenyl)-6-(4-chloro-2-fluoro-phenyl)-6-cyano-5-(2,2-dimethyl-propyl)-1-oxo-tetrahydro-pyrrolo[1,2-c]imidazol-2-yl]-2-trifluoromethyl-benzoic acid] as the compound, how does the IC50 read?
Answer: Its IC50 is 21 nM.

Question: How did the IC50 turn out when `C=CCC[C@@H]1N(c2ccc(C(=O)O)c(OC)c2)C(=O)[C@H]2[C@H](c3cccc(Cl)c3F)[C@@](C#N)(c3ccc(Cl)cc3F)[C@H](CC(C)(C)C)N12` [Example 41, 4-[(3S,5S,6R,7S,7aR)-3-but-3-enyl-7-(3-chloro-2-fluoro-phenyl)-6-(4-chloro-2-fluoro-phenyl)-6-cyano-5-(2,2-dimethyl-propyl)-1-oxo-tetrahydro-pyrrolo[1,2-c]imidazol-2-yl]-2-methoxy-benzoic acid] was run?
Answer: Its IC50 is 9 nM.

Question: Which IC50 does the source give for `COc1cc(C(=O)O)ccc1N1CN2[C@@H](CC(C)(C)C)[C@](C#N)(c3ccc(Cl)cc3F)[C@@H](c3cccc(Cl)c3F)[C@@H]2C1=O` [Example 3, 4-[(5S,6R,7S,7aR)-7-(3-chloro-2-fluoro-phenyl)-6-(4-chloro-2-fluoro-phenyl)-6-cyano-5-(2,2-dimethyl-propyl)-1-oxo-tetrahydro-pyrrolo[1,2-c]imidazol-2-yl]-3-methoxy-benzoic acid] here?
Answer: The IC50 was 13 nM.

Question: For `CC(C)(C)C[C@@H]1N2CN(CC(=O)O)C(=O)[C@H]2[C@H](c2cccc(Cl)c2F)[C@@]1(C#N)c1ccc(Cl)cc1F` [Example 4, [(5S,6R,7S,7aR)-7-(3-chloro-2-fluoro-phenyl)-6-(4-chloro-2-fluoro-phenyl)-6-cyano-5-(2,2-dimethyl-propyl)-1-oxo-tetrahydro-pyrrolo[1,2-c]imidazol-2-yl]-acetic acid], which IC50 is on record?
Answer: The IC50 was 10 nM.

Question: For `CC(C)(C)C[C@@H]1N2[C@H](CC3CCCCC3)N(c3ccc(C(=O)O)cc3)C(=O)[C@H]2[C@H](c2cccc(Cl)c2F)[C@@]1(C#N)c1ccc(Cl)cc1F` (racemic) [Example 35, rac-4-[(3S,5S,6R,7S,7aR)-7-(3-chloro-2-fluoro-phenyl)-6-(4-chloro-2-fluoro-phenyl)-6-cyano-3-cyclohexylmethyl-5-(2,2-dimethyl-propyl)-1-oxo-tetrahydro-pyrrolo[1,2-c]imidazol-2-yl]-benzoic acid], which IC50 is on record?
Answer: Its IC50 is 15 nM.
